Measurements from patent EP4470536A1, “COMPOUND FOR USE IN TREATING FIBRODYSPLASIA OSSIFICANS PROGRESSIVA (FOP)” (Queen's University At Kingston, priority 2023, dated 2024).

Assays:
[1] = molecular target: T1, CYP26B1 (Homo sapiens, UniProt Q9NR63); assay: Microsome-based inhibitor assay (microsomes from CYP26B1-transfected HeLa cells); type: biochemical; settings: 5µg microsomal fraction, 1mM NADPH, 1 hour at 37°C; Figure 3
T1 sequence (Q9NR63 1-512): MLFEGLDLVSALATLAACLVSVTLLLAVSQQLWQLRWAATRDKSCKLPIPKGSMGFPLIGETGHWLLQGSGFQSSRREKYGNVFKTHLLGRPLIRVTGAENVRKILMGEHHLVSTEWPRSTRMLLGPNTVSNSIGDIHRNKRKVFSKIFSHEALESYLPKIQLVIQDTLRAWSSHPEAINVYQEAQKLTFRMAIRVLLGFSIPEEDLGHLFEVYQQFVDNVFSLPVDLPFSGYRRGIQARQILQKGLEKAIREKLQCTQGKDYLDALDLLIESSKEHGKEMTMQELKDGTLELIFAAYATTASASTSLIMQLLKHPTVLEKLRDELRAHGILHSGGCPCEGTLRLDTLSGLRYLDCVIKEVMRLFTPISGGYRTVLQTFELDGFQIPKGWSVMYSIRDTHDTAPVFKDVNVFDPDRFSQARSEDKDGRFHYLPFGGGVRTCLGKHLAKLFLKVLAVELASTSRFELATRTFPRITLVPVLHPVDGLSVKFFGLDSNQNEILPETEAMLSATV
Protocol: This assay used cell-free microsomes to measure the ability of a test compound to inhibit the metabolism of RA. Microsomal fractions were obtained from CYP26B1 cDNA stably transfected HeLa cells by differential centrifugation of cell lysates. Assays were carried out in 48-well plates containing 5µg of microsomal fraction in Microsome Assay Buffer, containing 0.04µCi [^3H]-RA in the presence of increasing concentrations of a test compound, as described above for the HeLa cell-based assay. Reactions were initiated by addition of 1mM NADPH, and carried out for 1 hour at 37°C. Reactions were stopped, retinoids extracted, and data were collected and analyzed as described above for the HeLa cell-based assay.

[2] = system: ectopic bone formation; assay: Surgical mouse model of heterotopic ossification (rhBMP2-soaked collagen disk), micro-CT; type: in vivo, CD-1 mouse; settings: for Mean bone volume (mm^3) / percent change in HO volume from vehicle mean (%): oral gavage, 13 days, Day 14
Protocol: Heterotopic ossification (HO) driven by Bone Morphogenetic Protein (BMP) signaling has been used as a surrogate model for testing the effectiveness of drugs for treating Fibrodysplasia Ossificans Progressiva (FOP) (see, for example, Shimono K., et al. (2011). Nat Med 17, 454-460.). Collagen disks of 1mm in diameter were punched from a thin collagen foam matrix (Avitene™ Ultrafoam™ Collagen Hemostat product #1050050 lot #WBDP0038, from BD, Franklin Lakes, NJ, USA). Disks were impregnated with 1µg total of recombinant human BMP-2 (GenScript, Piscataway, NJ, USA, catalog #Z02913, lot #P50031712) on the day of surgery (5µl of 200ng/µL BMP-2, reconstituted in 20mM acetic acid solution). The rhBMP2-soaked collagen disk was surgically implanted into a small pocket made in the left gastrocnemius muscle of a 6-8 week-old male CD-1 mouse. Beginning on the day following surgery, mice were administered varying doses of compound 1 by oral gavage once daily (QD) or twice daily (every 12h; BID) for 13 days. Doses administered were: vehicle (Corn oil, QD (5M) and BID (3M) dosing or 3% DMSO in Corn oil (2M)), compound 1 18 mg/kg BID, 18 mg/kg QD, 6 mg/kg BID, 4.5 mg/kg BID, and 2 mg/kg BID (6M per group). Palovarotene high and low doses were used as comparators (1.76 mg/kg (4M) and 0.88 mg/kg QD (6M)). The palovarotene high and low doses were selected based on a study for palovarotene (Inubushi, T., et al. (2018). "Palovarotene Inhibits Osteochondroma Formation in a Mouse Model of Multiple Hereditary Exostoses." J Bone Miner Res 33(4): 658-666.), using oral treatment of mice. The inventors also verified the dose selection based on pharmacokinetic (PK) data generated in-house for palovarotene IP (intraperitoneal) and PO (oral) treatment by using the doses for IP treatment from Lees-Shepard, J. B., et al. (2018).
At the study endpoint (Day 14: 16-30 hours after final compound treatment) left hindlimbs were removed and submitted to micro-CT (micro-computed tomography) imaging. Using this preclinical surgical model, the amount of resulting ectopic bone formation after 14 days was visualized for each of the treatment groups (Figure 6). The highly enhancing regions seen within the gastrocnemius muscle corresponded to the amount of ectopic bone formation generated at the site of collagen disk implantation, following 14 days of vehicle or drug treatment.
The hindlimbs obtained in Example 6 above were submitted to micro-CT imaging. CT images were acquired using a VECTor^4CT pre-clinical scanner (MILabs B.V., Utrecht, Netherlands) equipped with a cone beam X-ray CT system. Scans were carried out with an acceleration voltage of 50 kVp and an X-ray tube current of 430 µA in accurate focus mode to obtain 3600 projections over a 360° scan. With a 40 ms exposure time per step, the total scan procedure took about 5 minutes with an estimated radiation dose of 3077 mGy. CT images were consequently processed using MILabs reconstruction software implementing a voxel size of 20 µm and a Hann projection filter of 25 µm to generate 3-dimensional CT images. For quantification, CT images were converted to DICOM® files using PMOD 3.9 software (PMOD Technologies Ltd., Zurich, Switzerland) for rendering using RadiAnt DICOM Viewer 4.2 software (Medixant, Poznań, Poland). The region-of-interest for all hindlimbs, reconstructed from DICOM files, was defined by outlining sites of ectopic ossification. Analysis of total ectopic bone volume was conducted via automated processes using the AnalyzePro software with the Bone Microarchitecture Analysis (BMA) add-on (AnalyzeDirect, Overland Park, Kansas). This software generates bone volume measurements from the defined area, as described by Bouxsein et al (2010). Journal of Bone and Mineral Research, 25(7), 1468-1486. Using this preclinical surgical model, the ability of compound 1 to inhibit HO (percentage from vehicle), as compared to palovarotene, was assessed and is shown in Figure 7 and in Table 1 below.

[3] = system: growth plates of juvenile FVB mice; assay: Long bone growth and growth plate toxicity in juvenile mice; settings: for Mean femur length (cm) / Mean tibia length (cm): oral gavage, P14-P41, juvenile FVB mice; for Mean modified Crural index: ratio of tibia over femur length
Excerpt: A preclinical study was used to evaluate toxicity of various doses of compound 1 versus palovarotene on the growth plates of juvenile FVB mice following once daily (QD) or twice (BID) administration by oral gavage, over the juvenile development period, for 4 weeks (postnatal days 14-42 (P14-P42)). […] Resultant DICOM files were rendered in the RadiAnt viewer to obtain long bone measurements using the program's measuring tool (Figure 8A).

CC(C)(C)c1cccc(-c2cc3cc(/C=C/C(=O)O)ccc3[nH]2)c1 [Compound 1, (E)-3-(2-(3-(tert-butyl)phenyl)-1H-indol-5-yl)acrylic acid]
IC50 [1]: 5.9 nM
Mean bone volume (mm^3) ([2]; 2mg/kg BID): 0.920 mm^3
percent change in HO volume from vehicle mean (%) ([2]; 2mg/kg BID): -52.5%
Mean bone volume (mm^3) ([2]; 4.5mg/kg BID): 1.205 mm^3
percent change in HO volume from vehicle mean (%) ([2]; 4.5mg/kg BID): -37.8%
Mean bone volume (mm^3) ([2]; 6mg/kg BID): 0.212 mm^3
percent change in HO volume from vehicle mean (%) ([2]; 6mg/kg BID): -89.1%
Mean bone volume (mm^3) ([2]; 18mg/kg BID): 0.035 mm^3
percent change in HO volume from vehicle mean (%) ([2]; 18mg/kg BID): -98.2%
Mean bone volume (mm^3) ([2]; 18mg/kg QD): 0.436 mm^3
percent change in HO volume from vehicle mean (%) ([2]; 18mg/kg QD): -77.5%
ectopic bone formation ([2]; 2 to 18 mg/kg, versus vehicle, 14 days): dose-dependent decrease in ectopic bone formation
Mean femur length (cm) ([3]; 3mg/kg BID): 1.38 ± 0.03 cm
Mean tibia length (cm) ([3]; 3mg/kg BID): 1.69 ± 0.04 cm
Mean modified Crural index ([3]; 3mg/kg BID): 1.23 ± 0.03
Mean femur length (cm) ([3]; 6mg/kg BID): 1.33 ± 0.11 cm
Mean tibia length (cm) ([3]; 6mg/kg BID): 1.53 ± 0.05 cm
Mean modified Crural index ([3]; 6mg/kg BID): 1.15 ± 0.05
Mean femur length (cm) ([3]; 10mg/kg BID): 1.34 ± 0.06 cm
Mean tibia length (cm) ([3]; 10mg/kg BID): 1.70 ± 0.04 cm
Mean modified Crural index ([3]; 10mg/kg BID): 1.27 ± 0.06
Mean femur length (cm) ([3]; 18mg/kg QD): 1.10 ± 0.09 cm
Mean tibia length (cm) ([3]; 18mg/kg QD): 1.54 ± 0.07 cm
Mean modified Crural index ([3]; 18mg/kg QD): 1.40 ± 0.06
disturbances to the growth of long bones and microarchitecture of the growth plates ([3]; at doses at least equally efficacious as palovarotene, Figures 8A, 8B, 9): not observed
